Like-named read-outs stand apart in the source and are kept apart here.
Experiments:
[1] = tested on: H929 human cancer cell lines; test: Cellular viability / proliferation (Cell TiterGlo, 72 h); format: cell-based
Method in brief: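 H929 cells plated at 1,000/well in 10% FBS medium received a 2-fold serial compound dilution (top 50 μM, DMSO <1%) 24 h later. After 72 h, viability was read by CellTiter-Glo luminescence. IC50 came from a four-parameter fit.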

[2] = target: Mcl-1 (Homo sapiens (Human), UniProt Q07820); test: Fluorescence polarization anisotropy (FPA) competition assay, FITC-Bak or FITC-Bim BH3 peptide; format: binding; details: read-out: Ki for Inhibition of Mcl-1 by FPA assay
[3] = Homo sapiens, NCI-H929, 72 h, read-out: GI50 on cellular proliferation of H929 human cancer cell lines, H929 cells, 72 h, Cell TiterGlo, 10% FBS

Mcl-1, sequence (Q07820 172-327): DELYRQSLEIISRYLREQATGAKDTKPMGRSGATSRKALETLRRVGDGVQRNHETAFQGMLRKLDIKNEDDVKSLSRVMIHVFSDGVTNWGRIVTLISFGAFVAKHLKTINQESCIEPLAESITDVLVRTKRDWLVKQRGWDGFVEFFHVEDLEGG

Row | Compound | GI50 [1, 3] [nM] | Ki [2] [nM] | GI50 ([1]; H929 cells, 72 h, Cell TiterGlo, 10% FBS, read-out: GI50 on cellular proliferation of H929 human cancer cell lines) [nM]
1 | Cc1cccc(OCCCc2c3n(c4c(-c5c(C)nn(C)c5C)c(Cl)ccc24)[C@H](C)CN(c2cn(C)c4ccc(C(=O)O)cc24)C3=O)c1 [Example 405, (R)-3-(7-Chloro-4-methyl-1-oxo-10-(3-(m-tolyloxy)propyl)-6-(1,3,5-trimethyl-1H-pyrazol-4-yl)-3,4-dihydropyrazino[1,2-a]indol-2(1H)-yl)-1-methyl-1H-indole-5-carboxylic acid] | 460 | < 1 | –
2 | Cc1cc(OCCCc2c3n(c4c(-c5c(C)ncnc5C)c(Cl)ccc24)[C@H](C)CN(c2cccc4c(C(=O)O)ccnc24)C3=O)cc(C)c1Cl [Example 225, 8-[(4R)-7-chloro-10-[3-(4-chloro-3,5-dimethyl-phenoxy)propyl]-6-(4,6-dimethylpyrimidin-5-yl)-4-methyl-1-oxo-3,4-dihydropyrazino[1,2-a]indol-2-yl]quinoline-4-carboxylic acid] | 3300 | < 1 | –
3 | Cc1cc(OCCCc2c3n(c4c(-c5c(C)nn(C)c5C)c(Cl)ccc24)[C@H](C)CN(c2cc(C(=O)O)c4cnn(CCN5CCOCC5)c4c2)C3=O)cc(C)c1Cl [Example 56, (R)-6-(7-chloro-10-(3-(4-chloro-3,5-dimethylphenoxy)propyl)-4-methyl-1-oxo-6-(1,3,5-trimethyl-1H-pyrazol-4-yl)-3,4-dihydropyrazino[1,2-a]indol-2(1H)-yl)-1-(2-morpholinoethyl)-1H-indazole-4-carboxylic acid] | 810 | < 1 | –
4 | Cc1cc(OCCCc2c3n(c4c(-c5c(C)nn(C)c5C)c(Cl)ccc24)[C@H](C)CN(c2cccc4cc(C#N)n(C)c24)C3=O)cc(C)c1Cl [Example 300, 7-[(4R)-7-chloro-10-[3-(4-chloro-3,5-dimethyl-phenoxy)propyl]-4-methyl-1-oxo-6-(1,3,5-trimethylpyrazol-4-yl)-3,4-dihydropyrazino[1,2-a]indol-2-yl]-1-methyl-indole-2-carbonitrile] | 5900 | 2 | –
5 | Cc1cc(OCCCc2c3n(c4c(-c5c(C)nn(C)c5C)c(Cl)ccc24)[C@H](C)CN(c2cccc4cc(C(N)=O)n(Cc5ccccn5)c24)C3=O)cc(C)c1Cl [Example 385, (R)-7-(7-Chloro-10-(3-(4-chloro-3,5-dimethylphenoxy)propyl)-4-methyl-1-oxo-6-(1,3,5-trimethyl-1H-pyrazol-4-yl)-3,4-dihydropyrazino[1,2-a]indol-2(1H)-yl)-1-(pyridin-2-ylmethyl)-1H-indole-2-carboxamide] | 510 | 4.1 | –
6 | Cc1cc(OCCCc2c3n(c4c(-c5c(C)nn(CC6CCOCC6)c5C)c(Cl)ccc24)[C@H](C)CN(c2cn(C)c4ccc(C(=O)O)cc24)C3=O)cc(C)c1Cl [Example 262, (R)-3-(7-chloro-10-(3-(4-chloro-3,5-dimethylphenoxy)propyl)-6-(3,5-dimethyl-1-((tetrahydro-2H-pyran-4-yl)methyl)-1H-pyrazol-4-yl)-4-methyl-1-oxo-3,4-dihydropyrazino[1,2-a]indol-2(1H)-yl)-1-methyl-1H-indole-5-carboxylic acid] | 450 | < 1 | –
7 | Cc1cc(OCCCc2c3n(c4c(-c5c(C)nc(CN(C)CCN(C)C)nc5C)c(Cl)ccc24)[C@H](C)CN(c2cn(C)c4ccc(C(=O)O)cc24)C3=O)cc(C)c1Cl [Example 448, (R)-3-(7-Chloro-10-(3-(4-chloro-3,5-dimethylphenoxy)propyl)-6-(2-(((2-(dimethylamino)ethyl)(methyl)amino)methyl)-4,6-dimethylpyrimidin-5-yl)-4-methyl-1-oxo-3,4-dihydropyrazino[1,2-a]indol-2(1H)-yl)-1-methyl-1H-indole-5-carboxylic acid] | 360 | 2.2 | –
8 | Cc1cc(OCCCc2c3n(c4c(-c5c(C)nn(C)c5C)c(Cl)ccc24)[C@H](C)CN(c2cn(C)c4ccc(C(=O)NN)cc24)C3=O)cc(C)c1Cl [Example 366, (R)-3-(7-Chloro-10-(3-(4-chloro-3,5-dimethylphenoxy)propyl)-4-methyl-1-oxo-6-(1,3,5-trimethyl-1H-pyrazol-4-yl)-3,4-dihydropyrazino[1,2-a]indol-2(1H)-yl)-1-methyl-1H-indole-5-carbohydrazide] | 440 | 2.9 | –
9 | CCn1cc(N2C[C@@H](C)n3c(c(CCCOc4cc(C)c(Cl)c(C)c4)c4ccc(Cl)c(-c5c(C)nn(C)c5C)c43)C2=O)c2cc(C(=O)O)ccc21 [Example 164, (R)-3-(7-Chloro-10-(3-(4-chloro-3,5-dimethylphenoxy)propyl)-4-methyl-1-oxo-6-(1,3,5-trimethyl-1H-pyrazol-4-yl)-3,4-dihydropyrazino[1,2-a]indol-2(1H)-yl)-1-ethyl-1H-indole-5-carboxylic acid] | 920 | 1.7 | –
10 | COCCn1cc(N2C[C@@H](C)n3c(c(CCCOc4cc(C)c(Cl)c(C)c4)c4ccc(Cl)c(-c5c(C)nn(C)c5C)c43)C2=O)c2cc(C(=O)O)ccc21 [Example 268, (R)-3-(7-chloro-10-(3-(4-chloro-3,5-dimethylphenoxy)propyl)-4-methyl-1-oxo-6-(1,3,5-trimethyl-1H-pyrazol-4-yl)-3,4-dihydropyrazino[1,2-a]indol-2(1H)-yl)-1-(2-methoxyethyl)-1H-indole-5-carboxylic acid] | 410 | < 1 | –
11 | Cc1cccc(Cn2c(C(=O)O)cc3cccc(N4C[C@@H](C)n5c(c(CCCOc6cc(C)c(Cl)c(C)c6)c6ccc(Cl)c(-c7c(C)nn(C)c7C)c65)C4=O)c32)n1 [Example 381, (R)-7-(7-Chloro-10-(3-(4-chloro-3,5-dimethylphenoxy)propyl)-4-methyl-1-oxo-6-(1,3,5-trimethyl-1H-pyrazol-4-yl)-3,4-dihydropyrazino[1,2-a]indol-2(1H)-yl)-1-((6-methylpyridin-2-yl)methyl)-1H-indole-2-carboxylic acid] | 250 | 2.6 | –
12 | COCCN1CCN(Cc2nc(C)c(-c3c(Cl)ccc4c(CCCOc5cc(C)c(Cl)c(C)c5)c5n(c34)[C@H](C)CN(c3cn(C)c4ccc(C(=O)O)cc34)C5=O)c(C)n2)CC1 [Example 439, (R)-3-(7-Chloro-10-(3-(4-chloro-3,5-dimethylphenoxy)propyl)-6-(2-((4-(2-methoxyethyl)piperazin-1-yl)methyl)-4,6-dimethylpyrimidin-5-yl)-4-methyl-1-oxo-34-dihydropyrazino[1,2-a]indol-2(1H)-yl)-1-methyl-1H-indole-5-carboxylic acid] | – | 1.9 | < 200
13 | Cc1cc(OCCCc2c3n(c4c(-c5c(C)n[nH]c5C)c(Cl)ccc24)[C@H](C)CN(c2cn(C)c4cc(C(=O)O)ccc24)C3=O)cc(C)c1Cl [Example 109, (R)-3-(7-chloro-10-(3-(4-chloro-3,5-dimethylphenoxy)propyl)-6-(3,5-dimethyl-1H-pyrazol-4-yl)-4-methyl-1-oxo-3,4-dihydropyrazino[1,2-a]indol-2(1H)-yl)-1-methyl-1H-indole-6-carboxylic acid] | 710 | < 1 | –
14 | Cc1cc(OCCCc2c3n(c4c(-c5c(C)nn(C)c5C)c(Cl)ccc24)[C@H](C)CN(c2cn(C)c4cc(S(C)(=O)=O)ccc24)C3=O)cc(C)c1Cl [Example 222, (R)-7-chloro-10-(3-(4-chloro-3,5-dimethylphenoxy)propyl)-4-methyl-2-(1-methyl-6-(methylsulfonyl)-1H-indol-3-yl)-6-(1,3,5-trimethyl-1H-pyrazol-4-yl)-3,4-dihydropyrazino[1,2-a]indol-1(2H)-one] | 3000 | 6.9 | –
15 | CCn1cc(C(=O)O)c2c(N3C[C@@H](C)n4c(c(CCCOc5cc(C)c(Cl)c(C)c5)c5ccc(Cl)c(-c6c(C)nn(C)c6C)c54)C3=O)cccc21 [Example 173, 4-[(4R)-7-chloro-10-[3-(4-chloro-3,5-dimethyl-phenoxy)propyl]-4-methyl-1-oxo-6-(1,3,5-trimethylpyrazol-4-yl)-3,4-dihydropyrazino[1,2-a]indol-2-yl]-1-ethyl-indole-3-carboxylic acid] | 3300 | 2.7 | –
16 | Cc1cc(OCCCc2c3n(c4c(-c5c(C)nn(C)c5C)c(Cl)ccc24)CCCN(c2cc(C(=O)O)c4ncn(C)c4c2)C3=O)cc(C)c1Cl [Example 7, 6-[8-chloro-11-[3-(4-chloro-3,5-dimethyl-phenoxy)propyl]-1-oxo-7-(1,3,5-trimethylpyrazol-4-yl)-4,5-dihydro-3H-[1,4]diazepino[1,2-a]indol-2-yl]-1-methyl-benzimidazole-4-carboxylic acid] | 13000 | 2.2 | –
17 | Cc1cc(OCCCc2c3n(c4c(-c5c(C)nn(C)c5C)c(Cl)ccc24)[C@H](C)CN(c2cc(C(=O)O)cc4c2cc(C(F)(F)F)n4C)C3=O)cc(C)c1Cl [Example 211, 4-[(4R)-7-chloro-10-[3-(4-chloro-3,5-dimethyl-phenoxy)propyl]-4-methyl-1-oxo-6-(1,3,5-trimethylpyrazol-4-yl)-3,4-dihydropyrazino[1,2-a]indol-2-yl]-1-methyl-2-(trifluoromethyl)indole-6-carboxylic acid] | 11000 | 3.1 | –
18 | COc1cc(C(=O)O)cc(N2CCCn3c(c(CCCOc4cc(C)c(Cl)c(C)c4)c4ccc(Cl)c(-c5c(C)nn(C)c5C)c43)C2=O)c1OCCO [Example 62, 3-[8-chloro-11-[3-(4-chloro-3,5-dimethyl-phenoxy)propyl]-1-oxo-7-(1,3,5-trimethylpyrazol-4-yl)-4,5-dihydro-3H-[1,4]diazepino[1,2-a]indol-2-yl]-4-(2-hydroxyethoxy)-5-methoxy-benzoic acid] | 11000 | < 1 | –
